From ChEMBL document CHEMBL1629662, “Antimicrobial activity of prulifloxacin tested against a worldwide collection of gastroenteritis-producing pathogens, including those causing traveler's diarrhea” (2009)
≈ marks a conversion by molar mass, not a printed value.

Assays:
Aeromonas veronii = assay: Antibacterial activity against Aeromonas veronii assessed as percent resistant isolates by broth microdilution method; format: functional
Salmonella sp. [1] = assay: Antibacterial activity against Salmonella sp. assessed as growth inhibition at 0.03 ug/ml by broth microdilution method; format: functional
Vibrio vulnificus [2] = assay: Antibacterial activity against Vibrio vulnificus by broth microdilution method; format: functional
Shigella sp. [3] = assay: Antibacterial activity against Shigella sp. assessed as growth inhibition at =<0.002 ug/ml by broth microdilution method; format: functional
Aeromonas sobria = assay: Antibacterial activity against Aeromonas sobria by broth microdilution method; format: functional
Shigella sp. [4] = assay: Antibacterial activity against Shigella sp. assessed as growth inhibition at 0.004 ug/ml by broth microdilution method; format: functional
Vibrio sp. [5] = assay: Antibacterial activity against Vibrio sp. assessed as growth inhibition at 0.008 ug/ml by broth microdilution method; format: functional
Yersinia enterocolitica [6] = assay: Antibacterial activity against Yersinia enterocolitica assessed as percent resistant isolates by broth microdilution method; format: functional
Shigella flexneri = assay: Antibacterial activity against Shigella flexneri by broth microdilution method; format: functional
Aeromonas sp. [7] = assay: Antibacterial activity against Aeromonas sp. assessed as growth inhibition at 0.25 ug/ml by broth microdilution method; format: functional
[8] = Antibacterial activity against Salmonella enterica serovar Heidelberg by broth microdilution method; format: functional, Salmonella enterica subsp. enterica serovar Heidelberg
Campylobacter coli = assay: Antibacterial activity against Campylobacter coli by broth microdilution method; format: functional
Aeromonas hydrophila [9] = assay: Antibacterial activity against Aeromonas hydrophila assessed as percent susceptible isolates by broth microdilution method; format: functional
Vibrio parahaemolyticus = assay: Antibacterial activity against Vibrio parahaemolyticus assessed as percent resistant isolates by broth microdilution method; format: functional
Shigella sp. [10] = assay: Antibacterial activity against Shigella sp. assessed as growth inhibition at 0.008 ug/ml by broth microdilution method; format: functional
Escherichia coli [11] = assay: Antibacterial activity against blood-borne Escherichia coli assessed as percent susceptible isolates by broth microdilution method; format: functional
Campylobacter sp. [12] = assay: Antibacterial activity against Campylobacter sp. assessed as growth inhibition at =>4 ug/ml by broth microdilution method; format: functional
Campylobacter sp. [13] = assay: Antibacterial activity against Campylobacter sp. assessed as growth inhibition at 0.004 ug/ml by broth microdilution method; format: functional
Yersinia sp. [14] = assay: Antibacterial activity against Yersinia sp. assessed as growth inhibition at 0.06 ug/ml by broth microdilution method; format: functional; conditions: Yersinia sp. (in: enterobacteria)
Salmonella typhi [15] = assay: Antibacterial activity against Salmonella enterica serovar Typhi by broth microdilution method; format: functional, Salmonella enterica subsp. enterica serovar Typhi
Vibrio cholerae = assay: Antibacterial activity against Vibrio cholerae by broth microdilution method; format: functional
Salmonella typhi [16] = assay: Antibacterial activity against Salmonella enterica serovar Typhi assessed as percent susceptible isolates by broth microdilution method; format: functional, Salmonella enterica subsp. enterica serovar Typhi
Plesiomonas shigelloides [17] = assay: Antibacterial activity against Plesiomonas shigelloides assessed as growth inhibition at 0.004 ug/ml by broth microdilution method; format: functional
Vibrio fluvialis = assay: Antibacterial activity against Vibrio fluvialis assessed as percent resistant isolates by broth microdilution method; format: functional
Vibrio sp. [18] = assay: Antibacterial activity against Vibrio sp. assessed as growth inhibition at 0.004 ug/ml by broth microdilution method; format: functional
Aeromonas hydrophila [19] = assay: Antibacterial activity against Aeromonas hydrophila by broth microdilution method; format: functional
Plesiomonas shigelloides [20] = assay: Antibacterial activity against Plesiomonas shigelloides assessed as percent susceptible isolates by broth microdilution method; format: functional
Escherichia coli [21] = assay: Antibacterial activity against enterotoxigenic Escherichia coli assessed as percent susceptible isolates by broth microdilution method; format: functional
Escherichia coli [22] = assay: Antibacterial activity against Escherichia coli assessed as percent susceptible isolates by broth microdilution method; format: functional
Salmonella sp. [23] = assay: Antibacterial activity against Salmonella sp. assessed as growth inhibition at 0.06 ug/ml by broth microdilution method; format: functional
Salmonella typhimurium = assay: Antibacterial activity against Salmonella enterica serovar Typhimurium assessed as percent resistant isolates by broth microdilution method; format: functional, Salmonella enterica subsp. enterica serovar Typhimurium; conditions: pooled result: one value given for 8 cell lines, strains, targets or settings
Shigella dysenteriae = assay: Antibacterial activity against Shigella dysenteriae assessed as percent susceptible isolates by broth microdilution method; format: functional
Vibrio alginolyticus = assay: Antibacterial activity against Vibrio alginolyticus assessed as percent susceptible isolates by broth microdilution method; format: functional
Escherichia coli [24] = assay: Antibacterial activity against enteroaggregative Escherichia coli by broth microdilution method; format: functional
Escherichia coli [25] = assay: Antibacterial activity against enteropathogenic Escherichia coli assessed as percent susceptible isolates by broth microdilution method; format: functional
Escherichia coli [26] = assay: Antibacterial activity against enterotoxigenic Escherichia coli assessed as percent resistant isolates by broth microdilution method; format: functional
Escherichia coli [27] = assay: Antibacterial activity against Escherichia coli assessed as growth inhibition at =>4 ug/ml by broth microdilution method; format: functional
Escherichia coli [28] = assay: Antibacterial activity against Escherichia coli assessed as growth inhibition at 0.5 ug/ml by broth microdilution method; format: functional
[29] = Antibacterial activity against Salmonella enterica serovar Choleraesuis by broth microdilution method; format: functional, Salmonella enterica subsp. enterica serovar Choleraesuis
Aeromonas sp. [30] = assay: Antibacterial activity against Aeromonas sp. assessed as growth inhibition at 0.12 ug/ml by broth microdilution method; format: functional
Yersinia sp. [31] = assay: Antibacterial activity against Yersinia sp. assessed as growth inhibition at =<0.002 ug/ml by broth microdilution method; format: functional
Vibrio vulnificus [32] = assay: Antibacterial activity against Vibrio vulnificus assessed as percent resistant isolates by broth microdilution method; format: functional
Salmonella enteritidis [33] = assay: Antibacterial activity against Salmonella enterica serovar Enteritidis assessed as percent susceptible isolates by broth microdilution method; format: functional, Salmonella enterica subsp. enterica serovar Enteritidis; conditions: pooled result: one value given for 5 cell lines, strains, targets or settings
Salmonella sp. [34] = assay: Antibacterial activity against Salmonella sp. assessed as growth inhibition at =<0.002 ug/ml by broth microdilution method; format: functional
Campylobacter sp. [35] = assay: Antibacterial activity against Campylobacter sp. assessed as growth inhibition at 0.25 ug/ml by broth microdilution method; format: functional
Salmonella enteritidis [36] = assay: Antibacterial activity against Salmonella enterica serovar Enteritidis by broth microdilution method; format: functional, Salmonella enterica subsp. enterica serovar Enteritidis
Campylobacter sp. [37] = assay: Antibacterial activity against Campylobacter sp. assessed as growth inhibition at 0.008 ug/ml by broth microdilution method; format: functional
Yersinia enterocolitica [38] = assay: Antibacterial activity against Yersinia enterocolitica assessed as percent susceptible isolates by broth microdilution method; format: functional
Campylobacter jejuni = assay: Antibacterial activity against Campylobacter jejuni by broth microdilution method; format: functional
Salmonella sp. [39] = assay: Antibacterial activity against Salmonella sp. assessed as growth inhibition at 0.016 ug/ml by broth microdilution method; format: functional
Escherichia coli [40] = assay: Antibacterial activity against Escherichia coli assessed as growth inhibition at 0.25 ug/ml by broth microdilution method; format: functional

CC1Sc2c(C(=O)O)c(=O)c3cc(F)c(N4CCNCC4)cc3n21 (configuration not stated) [ULIFLOXACIN]
Activity (Aeromonas veronii): 2% | inhibition at 0.03 µg/mL (Salmonella sp. [1]): 91% | MIC50 (Vibrio vulnificus [2]): 0.016 µg/mL (≈ 0.0458 µM) | MIC90 (Vibrio vulnificus [2]): 0.03 µg/mL (≈ 0.0859 µM) | inhibition (INH) (Shigella sp. [3]): 1% | MIC50 (Aeromonas sobria): 0.004 µg/mL (≈ 0.0114 µM) | MIC90 (Aeromonas sobria): 0.06 µg/mL (≈ 0.172 µM) | inhibition at 0.004 µg/mL (Shigella sp. [4]): 62% | inhibition at 0.008 µg/mL (Vibrio sp. [5]): 40% | Activity (Yersinia enterocolitica [6]): 0% | MIC50 (Shigella flexneri): 0.004 µg/mL (≈ 0.0114 µM) | MIC90 (Shigella flexneri): 0.008 µg/mL (≈ 0.0229 µM) | inhibition at 0.25 µg/mL (Aeromonas sp. [7]): 95% | MIC50 [8]: 0.008 µg/mL (≈ 0.0229 µM) | MIC90 [8]: 0.03 µg/mL (≈ 0.0859 µM) | MIC50 (Campylobacter coli): 0.03 µg/mL (≈ 0.0859 µM) | MIC90 (Campylobacter coli): > 2 µg/mL | Activity (Aeromonas hydrophila [9]): 98% | Activity (Vibrio parahaemolyticus): 0% | inhibition at 0.008 µg/mL (Shigella sp. [10]): 95% | Activity (Escherichia coli [11]): 90% | inhibition (INH) (Campylobacter sp. [12]): 100% | inhibition at 0.004 µg/mL (Campylobacter sp. [13]): 0% | inhibition at 0.06 µg/mL (Yersinia sp. [14]): 98% | MIC50 (Salmonella typhi [15]): 0.008 µg/mL (≈ 0.0229 µM) | MIC90 (Salmonella typhi [15]): 0.03 µg/mL (≈ 0.0859 µM) | MIC50 (Vibrio cholerae): 0.016 µg/mL (≈ 0.0458 µM) | MIC90 (Vibrio cholerae): 0.03 µg/mL (≈ 0.0859 µM) | Activity (Salmonella typhi [16]): 100% | inhibition at 0.004 µg/mL (Plesiomonas shigelloides [17]): 75% | Activity (Vibrio fluvialis): 0% | inhibition at 0.004 µg/mL (Vibrio sp. [18]): 35% | MIC50 (Aeromonas hydrophila [19]): 0.004 µg/mL (≈ 0.0114 µM) | MIC90 (Aeromonas hydrophila [19]): 0.06 µg/mL (≈ 0.172 µM) | Activity (Plesiomonas shigelloides [20]): 100% | Activity (Escherichia coli [21]): 100% | Activity (Escherichia coli [22]): 97% | inhibition at 0.06 µg/mL (Salmonella sp. [23]): 97% | Activity (Salmonella typhimurium): 0% | Activity (Shigella dysenteriae): 100% | Activity (Vibrio alginolyticus): 100% | MIC (Escherichia coli [24]): 0.004 µg/mL (≈ 0.0114 µM) | MIC50 (Escherichia coli [24]): 0.004 µg/mL (≈ 0.0114 µM) | MIC90 (Escherichia coli [24]): 0.008 µg/mL (≈ 0.0229 µM) | MIC (Escherichia coli [24]; Escherichia coli, read-out: MIC): 0.004 µg/mL (≈ 0.0114 µM) | MIC50 (Escherichia coli [24]; Escherichia coli, read-out: MIC50): 0.004 µg/mL (≈ 0.0114 µM) | MIC90 (Escherichia coli [24]; Escherichia coli, read-out: MIC90): 0.008 µg/mL (≈ 0.0229 µM) | Activity (Escherichia coli [25]): 100% | Activity (Escherichia coli [26]): 0% | inhibition (INH) (Escherichia coli [27]): 100% | inhibition at 0.5 µg/mL (Escherichia coli [28]): 97% | MIC50 [29]: 0.008 µg/mL (≈ 0.0229 µM) | MIC90 [29]: 0.03 µg/mL (≈ 0.0859 µM) | inhibition at 0.12 µg/mL (Aeromonas sp. [30]): 93% | inhibition (INH) (Yersinia sp. [31]): 0% | Activity (Vibrio vulnificus [32]): 0% | Activity (Salmonella enteritidis [33]): 100% | inhibition (INH) (Salmonella sp. [34]): 1% | inhibition at 0.25 µg/mL (Campylobacter sp. [35]): 83% | MIC50 (Salmonella enteritidis [36]): 0.008 µg/mL (≈ 0.0229 µM) | MIC90 (Salmonella enteritidis [36]): 0.03 µg/mL (≈ 0.0859 µM) | inhibition at 0.008 µg/mL (Campylobacter sp. [37]): 2% | Activity (Yersinia enterocolitica [38]): 100% | MIC50 (Campylobacter jejuni): 0.03 µg/mL (≈ 0.0859 µM) | MIC90 (Campylobacter jejuni): > 2 µg/mL | inhibition at 0.016 µg/mL (Salmonella sp. [39]): 85% | inhibition at 0.25 µg/mL (Escherichia coli [40]): 97%
